# What was measured:
# Format in all cases: functional
# [1] = organism: Mus musculus; assay: Compound was evaluated for mutagenicity after threshold range
# [2] = organism: Mus musculus; assay: Compound was evaluated for low level mutagenicity
# [3] = organism: Mus musculus; assay: Compound was evaluated for Carcinogenicity based on concentration necessary to produce one tumor per mouse (Strain A)
# [4] = organism: Mus musculus; assay: Compound was evaluated for Carcinogenicity to produce 0.5 tumors per mouse (B.5)
Compound,Log 1/Th+200 [1],Log 1/B+100 [2],Log 1/B+1 [3],Log 1/B.5 [4]
NC(=O)Nc1cc(NC(N)=O)cc(N(CCCl)CCCl)c1,-0.01,0.31,4.26,5.43
ClCCN(CCCl)c1ccc(/C=C/c2ccccc2)cc1,2.04,1.99,,

# From ChEMBL document CHEMBL1121662 (1981)
